The text below walks through data of ChEMBL document CHEMBL4665648, “Potent and selective inhibitors of receptor-interacting protein kinase 1 that lack an aromatic back pocket group” (Bioorg Med Chem Lett, 2019).

The term inhibition denotes the change of the read-out against control, counted positive when it falls.

Each structure is given as a SMILES string.

The target of assay [1] is CDK8/Cyclin C (Homo sapiens) (UniProt P49336+P24863). Put plainly: Inhibition of tracer 236 binding to recombinant human His-tagged full length CDK8/Cyclin C expressed in baculovirus expression system at 10 uM incubated for 60 mins by Lanthascreen assay relative to control. A general note: In TR-FRET formats the signal depends on donor and acceptor labels being close together.

The target of assay [2] is Serine/threonine-protein kinase 24 (Homo sapiens) (UniProt Q9Y6E0). Put plainly: Inhibition of recombinant human GST-tagged full length MST3 expressed in baculovirus expression system using Ser/Thr 07 as substrate at 10 uM incubated for 60 mins by Z'-lyte assay relative to control.
Assay [3] has as its target Mitogen-activated protein kinase kinase kinase 5 (Homo sapiens) (UniProt Q99683). Put plainly: Inhibition of tracer 236 binding to recombinant human GST-tagged full length ASK1 expressed in baculovirus expression system at 10 uM incubated for 60 mins by Lanthascreen assay relative to control.
Assay [4] deals with Serine/threonine-protein kinase PAK 1 (Homo sapiens) (UniProt Q13153). In words: Inhibition of recombinant human GST-tagged full length PAK1 expressed in baculovirus expression system using Ser/Thr 19 as substrate at 10 uM incubated for 60 mins by Z'-lyte assay relative to control.
In assay [5] the target is Mast/stem cell growth factor receptor Kit (Homo sapiens) (UniProt P10721). In words: Inhibition of recombinant human His-tagged KIT (544 to 976 residues) expressed in baculovirus expression system using Tyr 01 as substrate at 10 uM incubated for 60 mins by Z'-lyte assay relative to control.
The target of assay [6] is SRSF protein kinase 3 (Homo sapiens) (UniProt Q9UPE1). Put plainly: Inhibition of recombinant human GST-tagged full length MSSK1 expressed in baculovirus expression system using Ser/Thr 13 as substrate at 10 uM incubated for 60 mins by Z'-lyte assay relative to control.
In assay [7] the target is Ephrin type-A receptor 1 (Homo sapiens) (UniProt P21709). Put plainly: Inhibition of recombinant human GST-tagged EPHA1 (568 to 976 residues) expressed in baculovirus expression system using Tyr 02 as substrate at 10 uM incubated for 60 mins by Z'-Lyte assay relative to control.
Assay [8] has as its target Tyrosine-protein kinase Lyn (Homo sapiens) (UniProt P07948). Put plainly: Inhibition of LYN (unknown origin) by selectscreen kinase assay. As to conditions: dose 10.0 µM, time 60.0 min.
The target in assay [9] is Serine/threonine-protein kinase 4 (Homo sapiens) (UniProt Q13043). In words: Inhibition of recombinant human GST-tagged full length MST1 expressed in baculovirus expression system using Ser/Thr 01 as substrate at 10 uM incubated for 60 mins by Z'-lyte assay relative to control.
In assay [10] the target is Dual specificity protein kinase TTK (Homo sapiens) (UniProt P33981). Put plainly: Inhibition of tracer 236 binding to recombinant human GST-tagged full length TTK expressed in baculovirus expression system at 10 uM incubated for 60 mins by Lanthascreen assay relative to control.
The target of assay [11] is Platelet-derived growth factor receptor alpha (Homo sapiens) (UniProt P16234). Put plainly: Inhibition of recombinant human GST-tagged PDGFRalpha (550 to 1089 residues) expressed in baculovirus expression system using Tyr 04 as substrate at 10 uM incubated for 60 mins by Z'-lyte assay relative to control.
The target of assay [12] is Aurora kinase A (Homo sapiens) (UniProt O14965). In words: Inhibition of recombinant human His-tagged full length Aurora A expressed in baculovirus expression system using Ser/Thr 01 as substrate at 10 uM incubated for 60 mins by Z'-Lyte assay relative to control.
The target of assay [13] is Serine/threonine-protein kinase Chk2 (Homo sapiens) (UniProt O96017). In words: Inhibition of recombinant human His-tagged full length CHK2 expressed in baculovirus expression system using Ser/Thr 07 as substrate at 10 uM incubated for 60 mins by Z'-Lyte assay relative to control.
Assay [14] has as its target Receptor-type tyrosine-protein kinase FLT3 (Homo sapiens) (UniProt P36888). Put plainly: Inhibition of recombinant human His-tagged FLT3 (564 to 958 residues) expressed in baculovirus expression system using Tyr 02 as substrate at 10 uM incubated for 60 mins by Z'-Lyte assay relative to control.
Assay [15] deals with Mitogen-activated protein kinase 10 (Homo sapiens) (UniProt P53779). In words: Inhibition of recombinant human N-terminal GST-tagged full length JNK3 expressed in baculovirus expression system using Ser/Thr 04 as substrate at 10 uM incubated for 60 mins by Z'-lyte assay relative to control.
Assay [16] deals with Aurora kinase B (Homo sapiens) (UniProt Q96GD4). Put plainly: Inhibition of recombinant human His-tagged full length Aurora B expressed in baculovirus expression system using Ser/Thr 01 as substrate at 10 uM incubated for 60 mins by Z'-Lyte assay relative to control.
Assay [17] deals with Calcium/calmodulin-dependent protein kinase type II subunit alpha (Homo sapiens) (UniProt Q9UQM7). Put plainly: Inhibition of recombinant human His-tagged full length CAMK2alpha expressed in baculovirus expression system using Ser/Thr 04 as substrate at 10 uM incubated for 60 mins by Z'-Lyte assay relative to control.
Assay [18] concerns the target Ribosomal protein S6 kinase alpha-5 (Homo sapiens) (UniProt O75582). Put plainly: Inhibition of recombinant human GST-tagged full length MSK1 expressed in baculovirus expression system using Ser/Thr 01 as substrate at 10 uM incubated for 60 mins by Z'-lyte assay relative to control.
Assay [19] addresses 5'-AMP-activated protein kinase catalytic subunit alpha-1 (Homo sapiens) (UniProt Q13131). In words: Inhibition of PRKAA1 (unknown origin) by selectscreen kinase assay. As to conditions: dose 10.0 µM, time 60.0 min.
The target of assay [20] is Ephrin type-B receptor 1 (Homo sapiens) (UniProt P54762). Put plainly: Inhibition of recombinant human GST-tagged EPHB1 (613 to 881 residues) expressed in baculovirus expression system using Tyr 02 as substrate at 10 uM incubated for 60 mins by Z'-Lyte assay relative to control.
In assay [21] the target is Non-receptor tyrosine-protein kinase TYK2 (Homo sapiens) (UniProt P29597). In words: Inhibition of recombinant human N-terminal GST-tagged TYK2 (833 to 1187 residues) expressed in baculovirus expression system using Tyr 03 as substrate at 10 uM incubated for 60 mins by Z'-Lyte assay relative to control.
Assay [22] has as its target Mitogen-activated protein kinase 14 (Homo sapiens) (UniProt Q16539). In words: Inhibition of recombinant human GST-tagged full length p38 alpha expressed in Escherichia coli expression system using Ser/Thr 15 as substrate at 10 uM incubated for 60 mins by Z'-Lyte assay relative to control.
In assay [23] the target is Serine/threonine-protein kinase mTOR (Homo sapiens) (UniProt P42345). Put plainly: Inhibition of recombinant human GST-tagged mTOR (1360 to 2549 residues) expressed in Escherichia coli expression system using Ser/Thr 11 as substrate at 10 uM incubated for 60 mins by Z'-Lyte assay relative to control.
The target in assay [24] is Tyrosine-protein kinase receptor TYRO3 (Homo sapiens) (UniProt Q06418). Put plainly: Inhibition of recombinant human GST-tagged full length RSE (451 to 890 residues) expressed in baculovirus expression system using Tyr 02 as substrate at 10 uM incubated for 60 mins by Z'-Lyte assay relative to control.

Mitogen-activated protein kinase kinase kinase 5 (Homo sapiens), sequence (Q99683 whole entry): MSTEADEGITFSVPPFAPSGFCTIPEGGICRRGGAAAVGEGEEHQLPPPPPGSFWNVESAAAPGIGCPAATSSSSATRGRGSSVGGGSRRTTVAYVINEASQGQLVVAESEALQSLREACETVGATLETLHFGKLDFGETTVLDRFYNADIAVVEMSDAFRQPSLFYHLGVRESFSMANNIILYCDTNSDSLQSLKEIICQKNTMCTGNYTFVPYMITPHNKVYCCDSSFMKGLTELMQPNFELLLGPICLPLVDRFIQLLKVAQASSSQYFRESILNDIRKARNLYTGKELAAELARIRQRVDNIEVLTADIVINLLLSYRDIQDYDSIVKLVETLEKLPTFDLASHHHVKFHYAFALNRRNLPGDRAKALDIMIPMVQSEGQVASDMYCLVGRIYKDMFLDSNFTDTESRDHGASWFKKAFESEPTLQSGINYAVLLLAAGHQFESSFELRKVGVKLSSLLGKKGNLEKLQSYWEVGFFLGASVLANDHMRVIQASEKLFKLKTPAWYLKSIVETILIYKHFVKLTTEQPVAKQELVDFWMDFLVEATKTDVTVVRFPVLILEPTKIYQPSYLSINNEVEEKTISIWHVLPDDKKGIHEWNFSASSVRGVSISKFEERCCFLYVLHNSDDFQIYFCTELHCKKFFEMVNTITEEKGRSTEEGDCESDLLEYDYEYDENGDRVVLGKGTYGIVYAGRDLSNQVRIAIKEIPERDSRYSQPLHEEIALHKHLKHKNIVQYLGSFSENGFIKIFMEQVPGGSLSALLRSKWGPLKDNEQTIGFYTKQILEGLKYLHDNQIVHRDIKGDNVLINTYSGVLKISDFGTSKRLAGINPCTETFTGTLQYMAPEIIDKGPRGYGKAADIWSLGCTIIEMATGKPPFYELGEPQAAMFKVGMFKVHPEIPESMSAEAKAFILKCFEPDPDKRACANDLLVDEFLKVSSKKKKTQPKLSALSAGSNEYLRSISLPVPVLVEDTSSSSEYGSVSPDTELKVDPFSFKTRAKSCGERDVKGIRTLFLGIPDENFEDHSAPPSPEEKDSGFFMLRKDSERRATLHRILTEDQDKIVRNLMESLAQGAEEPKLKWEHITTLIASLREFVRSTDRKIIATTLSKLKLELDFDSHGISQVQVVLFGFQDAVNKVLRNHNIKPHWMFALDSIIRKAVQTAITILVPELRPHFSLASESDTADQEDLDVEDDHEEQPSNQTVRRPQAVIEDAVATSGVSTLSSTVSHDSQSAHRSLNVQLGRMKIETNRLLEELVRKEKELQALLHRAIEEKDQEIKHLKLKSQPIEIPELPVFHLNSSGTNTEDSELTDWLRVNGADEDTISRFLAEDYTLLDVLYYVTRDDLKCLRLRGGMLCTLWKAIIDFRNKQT
Non-receptor tyrosine-protein kinase TYK2 (Homo sapiens), sequence (P29597 whole entry, the tested form may be a part): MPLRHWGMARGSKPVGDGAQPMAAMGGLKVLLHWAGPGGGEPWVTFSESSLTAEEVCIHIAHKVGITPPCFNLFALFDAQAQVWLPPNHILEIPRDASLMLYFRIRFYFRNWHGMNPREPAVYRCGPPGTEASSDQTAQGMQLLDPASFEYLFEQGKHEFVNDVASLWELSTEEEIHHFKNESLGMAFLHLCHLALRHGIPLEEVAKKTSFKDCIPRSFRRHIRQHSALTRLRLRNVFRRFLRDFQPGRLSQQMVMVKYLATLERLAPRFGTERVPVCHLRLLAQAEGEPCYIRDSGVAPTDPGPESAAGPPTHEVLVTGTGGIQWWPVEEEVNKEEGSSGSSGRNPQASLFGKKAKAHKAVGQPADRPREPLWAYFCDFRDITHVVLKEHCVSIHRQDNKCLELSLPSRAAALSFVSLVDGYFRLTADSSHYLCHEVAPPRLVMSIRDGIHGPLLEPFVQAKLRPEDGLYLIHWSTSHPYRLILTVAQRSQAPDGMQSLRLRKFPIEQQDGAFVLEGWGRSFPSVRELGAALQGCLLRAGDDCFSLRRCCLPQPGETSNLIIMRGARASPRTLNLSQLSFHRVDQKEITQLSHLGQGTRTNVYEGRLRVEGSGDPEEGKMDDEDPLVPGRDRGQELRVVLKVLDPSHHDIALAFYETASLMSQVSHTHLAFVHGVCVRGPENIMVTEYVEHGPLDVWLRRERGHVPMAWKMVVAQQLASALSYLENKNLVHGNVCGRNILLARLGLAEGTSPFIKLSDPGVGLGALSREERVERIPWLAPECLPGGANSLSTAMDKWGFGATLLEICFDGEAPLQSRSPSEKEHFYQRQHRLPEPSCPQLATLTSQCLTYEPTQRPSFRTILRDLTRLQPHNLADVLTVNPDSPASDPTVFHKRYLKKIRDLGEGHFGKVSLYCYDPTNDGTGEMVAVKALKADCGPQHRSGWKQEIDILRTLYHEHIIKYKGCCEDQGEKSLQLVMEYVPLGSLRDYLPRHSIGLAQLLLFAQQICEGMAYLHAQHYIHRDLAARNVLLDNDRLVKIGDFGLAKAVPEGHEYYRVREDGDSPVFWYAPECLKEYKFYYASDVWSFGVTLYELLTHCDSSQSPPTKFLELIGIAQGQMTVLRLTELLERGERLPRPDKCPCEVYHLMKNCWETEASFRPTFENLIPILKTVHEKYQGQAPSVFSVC
Serine/threonine-protein kinase Chk2 (Homo sapiens), sequence (O96017 whole entry, the tested form may be a part): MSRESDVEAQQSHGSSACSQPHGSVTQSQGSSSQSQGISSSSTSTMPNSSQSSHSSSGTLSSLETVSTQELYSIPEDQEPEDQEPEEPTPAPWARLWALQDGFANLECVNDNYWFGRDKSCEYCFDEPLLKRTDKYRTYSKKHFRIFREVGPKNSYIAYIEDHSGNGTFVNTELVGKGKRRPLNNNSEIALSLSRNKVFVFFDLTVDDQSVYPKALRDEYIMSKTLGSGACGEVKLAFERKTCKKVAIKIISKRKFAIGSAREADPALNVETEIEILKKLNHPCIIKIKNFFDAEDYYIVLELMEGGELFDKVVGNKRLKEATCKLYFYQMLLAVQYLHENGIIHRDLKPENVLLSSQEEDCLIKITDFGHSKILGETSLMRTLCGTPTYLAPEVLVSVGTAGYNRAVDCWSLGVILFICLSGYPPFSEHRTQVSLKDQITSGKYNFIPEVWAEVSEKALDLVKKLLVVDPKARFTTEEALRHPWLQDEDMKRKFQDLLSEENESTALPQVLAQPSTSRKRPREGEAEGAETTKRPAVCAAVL
5'-AMP-activated protein kinase catalytic subunit alpha-1 (Homo sapiens), sequence (Q13131 whole entry, looked up, the tested form may be a part): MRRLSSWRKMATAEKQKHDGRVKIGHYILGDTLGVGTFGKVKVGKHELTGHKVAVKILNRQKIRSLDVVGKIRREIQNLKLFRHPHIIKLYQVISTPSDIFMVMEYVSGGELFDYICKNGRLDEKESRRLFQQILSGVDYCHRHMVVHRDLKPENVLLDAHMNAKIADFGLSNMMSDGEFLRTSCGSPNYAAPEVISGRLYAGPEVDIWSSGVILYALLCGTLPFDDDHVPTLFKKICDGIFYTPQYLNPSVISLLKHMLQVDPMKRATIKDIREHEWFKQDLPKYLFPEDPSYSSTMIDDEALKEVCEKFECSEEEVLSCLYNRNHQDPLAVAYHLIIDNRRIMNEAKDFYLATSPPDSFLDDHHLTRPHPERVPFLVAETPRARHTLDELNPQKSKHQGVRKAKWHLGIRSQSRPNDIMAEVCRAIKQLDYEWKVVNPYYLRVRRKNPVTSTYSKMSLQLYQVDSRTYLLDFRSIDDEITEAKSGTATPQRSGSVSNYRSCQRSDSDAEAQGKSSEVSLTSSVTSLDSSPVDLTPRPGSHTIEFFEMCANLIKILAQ
Serine/threonine-protein kinase 4 (Homo sapiens), sequence (Q13043 whole entry): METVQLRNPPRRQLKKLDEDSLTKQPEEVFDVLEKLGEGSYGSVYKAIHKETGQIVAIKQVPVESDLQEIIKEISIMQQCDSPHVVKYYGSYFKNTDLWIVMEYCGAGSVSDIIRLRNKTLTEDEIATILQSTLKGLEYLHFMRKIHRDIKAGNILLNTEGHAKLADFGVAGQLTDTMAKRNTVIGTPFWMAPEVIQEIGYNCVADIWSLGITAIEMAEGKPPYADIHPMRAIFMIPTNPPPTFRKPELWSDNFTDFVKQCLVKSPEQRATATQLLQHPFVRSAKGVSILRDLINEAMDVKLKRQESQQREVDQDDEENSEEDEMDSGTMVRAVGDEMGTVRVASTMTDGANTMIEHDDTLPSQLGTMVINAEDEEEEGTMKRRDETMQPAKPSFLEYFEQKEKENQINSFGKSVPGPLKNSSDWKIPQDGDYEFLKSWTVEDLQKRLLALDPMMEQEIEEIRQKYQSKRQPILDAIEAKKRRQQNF
Mitogen-activated protein kinase 10 (Homo sapiens), sequence (P53779 whole entry): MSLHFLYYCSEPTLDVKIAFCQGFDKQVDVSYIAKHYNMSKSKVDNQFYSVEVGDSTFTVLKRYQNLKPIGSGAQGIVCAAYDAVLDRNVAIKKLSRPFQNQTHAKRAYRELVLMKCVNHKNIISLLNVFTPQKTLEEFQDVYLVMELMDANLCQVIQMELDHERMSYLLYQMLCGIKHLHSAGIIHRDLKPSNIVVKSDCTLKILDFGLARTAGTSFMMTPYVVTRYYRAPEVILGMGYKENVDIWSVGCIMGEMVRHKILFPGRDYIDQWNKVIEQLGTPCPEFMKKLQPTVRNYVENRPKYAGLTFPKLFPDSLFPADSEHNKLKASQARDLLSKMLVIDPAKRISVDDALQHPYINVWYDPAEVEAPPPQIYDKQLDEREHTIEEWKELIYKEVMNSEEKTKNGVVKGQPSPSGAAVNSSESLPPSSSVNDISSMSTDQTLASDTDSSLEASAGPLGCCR
Aurora kinase A (Homo sapiens), sequence (O14965 whole entry): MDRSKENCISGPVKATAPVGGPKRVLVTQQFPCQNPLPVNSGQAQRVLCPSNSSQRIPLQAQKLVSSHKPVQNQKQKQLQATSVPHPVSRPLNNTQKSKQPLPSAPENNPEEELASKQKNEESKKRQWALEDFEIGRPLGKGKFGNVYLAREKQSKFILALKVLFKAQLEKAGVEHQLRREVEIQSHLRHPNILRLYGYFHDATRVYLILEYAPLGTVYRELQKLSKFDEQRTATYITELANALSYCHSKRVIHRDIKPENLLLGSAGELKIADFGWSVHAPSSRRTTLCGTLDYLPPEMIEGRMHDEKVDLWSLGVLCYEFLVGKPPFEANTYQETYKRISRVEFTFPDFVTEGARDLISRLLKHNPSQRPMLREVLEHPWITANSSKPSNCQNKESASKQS

Turning to `CN1C(=O)[C@@H](NC(=O)c2n[nH]c3ncc(C(F)(F)C(F)(F)F)cc23)COc2ccccc21`, the inhibition in [1] was 14%; in assay [2], 6%; in assay [3], 0.5%; in assay [4] it was 0.5%; in assay [5], -5.5%; in assay [6] it was 6.5%. The inhibition in [7] was 6.5%; in assay [8], 8%; in assay [9] it was 7.5%; in assay [10] it was -6.5%; in assay [11] it was 2.5%; in assay [12], 0%. Also, the inhibition is 0.5% in assay [13]; 8.5% in assay [14]; 7% in assay [15]; 2.5% in [16]; 1% in [17]; -1% in assay [18]. Besides, the inhibition in assay [19] worked out at 3%; in assay [20], 2%; in [21], 5.5%; in [22] it was 0.5%; in [23], 1.5%; in [24], 1.5%.
